Patent US8617583B2, “Alpha adrenergic receptor agonists for prevention or treatment of a hematoma, edema, and/or deep vein thrombosis” (Warsaw Orthopedic, Inc., priority 2009, dated 2013)

Test system: Rat Chronic Constriction Injury Model
Settings: 0.02 mg/kg/day subcutaneously
Experimental: A 2-month chronic constriction injury (CCI) model of neuropathic pain was used to evaluate different formulations of a clonidine, encapsulated in bioerodable polymers compared to fluocinolone given subcutaneously (SC). Different formulations as provided in Table 5 below were evaluated for reducing pain-associated behaviors: Thermal paw withdrawal latency was evaluated at baseline 7, 14, 21, 28, 35, 42, 49, 56 and […] mechanical threshold was evaluated at 8, 15, 22, 29, 36, 43, 50, 57 and 64 days post-operatively.
The inventor evaluated the efficacy of a five Month Clonidine/Polyrner Drug Depot in the Rat Chronic Constriction Injury Model. The animal model was the Bennett Model (Wistar rat). The purpose: To determine whether a five month polymer clonidine-eluting depot can improve pain associated behavioral responses in a rat model of neuropathic pain.
Experimental Design: Four loose chromic gut ligatures, 1 mm apart, were tied around the common sciatic nerve at mid-thigh. Each animal received treatment of test or control article-according to the dosing described in Table 5.
The inventor has conducted the present study for a period of 64 days and have employed the following two tests: (1) the Hargreaves test; and (2) the von Frey test. The Hargreaves Tests of Thermal Hyperalgesia were conducted on days 7, 14, 21, 28, 35, 42, 49, 56 and 63. […]

Clc1cccc(Cl)c1N=C1NCCN1 [clonidine, 2,6-dichloro-N-2-imidazolidinyldenebenzenamine]
pain behavioral response (measured as a percentage of baseline) for thermal hyperalgesia (FIG. 3, vs unloaded polymer depots 45%): 58% | pain behavioral response (percentage of baseline) for mechanical allodynia, in words (FIG. 4, compared to unloaded polymer depots): reduced the behavioral response
